Test results from ChEMBL document CHEMBL1127933, “Synthesis and biological evaluation of the potent isoxazolidinyl angiotensin II receptor antagonist CL332,877 and its enantiomers” (Bioorg Med Chem Lett, 1994).

Columns and labels:
[1] = biological target: T1, Type-1 angiotensin II receptor (Bos taurus, UniProt P25104); test: Compound was tested for in vitro for AII receptor antagonistic activity in bovine adrenal cortex.; assay type: functional, tissue-based
T1 sequence (P25104 whole entry): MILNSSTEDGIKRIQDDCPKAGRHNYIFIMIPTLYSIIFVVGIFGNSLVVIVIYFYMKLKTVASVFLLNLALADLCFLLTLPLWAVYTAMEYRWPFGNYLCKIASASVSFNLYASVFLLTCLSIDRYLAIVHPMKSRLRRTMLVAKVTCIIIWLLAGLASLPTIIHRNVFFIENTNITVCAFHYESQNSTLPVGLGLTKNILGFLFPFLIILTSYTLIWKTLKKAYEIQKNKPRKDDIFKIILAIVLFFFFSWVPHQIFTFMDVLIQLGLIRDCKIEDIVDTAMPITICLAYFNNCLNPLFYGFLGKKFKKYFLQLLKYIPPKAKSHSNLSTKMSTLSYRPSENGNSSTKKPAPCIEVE

[2] = test system: Rattus norvegicus; test: Change in mean arterial blood pressure in conscious renin dependent […] rats 1 mg/kg of oral dose after 5 hr; assay type: functional
[3] = biological target: T2, Angiotensin II receptor (Rattus norvegicus, UniProt P29089+P25095+P35351); test: Binding affinity expressed as inhibitory concentration against angiotensin II of rat adrenal cortex; assay type: tissue-based
T2 sequence (P29089 whole entry): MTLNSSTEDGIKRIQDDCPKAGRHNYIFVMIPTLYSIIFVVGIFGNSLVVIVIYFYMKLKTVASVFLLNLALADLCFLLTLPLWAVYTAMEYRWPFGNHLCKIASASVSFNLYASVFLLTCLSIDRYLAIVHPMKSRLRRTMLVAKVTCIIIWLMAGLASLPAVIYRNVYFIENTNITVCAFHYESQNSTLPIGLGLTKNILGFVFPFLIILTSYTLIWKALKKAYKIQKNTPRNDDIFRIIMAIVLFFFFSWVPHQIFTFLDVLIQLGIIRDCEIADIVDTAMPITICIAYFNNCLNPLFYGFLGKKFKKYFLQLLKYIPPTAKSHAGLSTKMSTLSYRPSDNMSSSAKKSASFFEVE
T2 sequence (P25095 whole entry): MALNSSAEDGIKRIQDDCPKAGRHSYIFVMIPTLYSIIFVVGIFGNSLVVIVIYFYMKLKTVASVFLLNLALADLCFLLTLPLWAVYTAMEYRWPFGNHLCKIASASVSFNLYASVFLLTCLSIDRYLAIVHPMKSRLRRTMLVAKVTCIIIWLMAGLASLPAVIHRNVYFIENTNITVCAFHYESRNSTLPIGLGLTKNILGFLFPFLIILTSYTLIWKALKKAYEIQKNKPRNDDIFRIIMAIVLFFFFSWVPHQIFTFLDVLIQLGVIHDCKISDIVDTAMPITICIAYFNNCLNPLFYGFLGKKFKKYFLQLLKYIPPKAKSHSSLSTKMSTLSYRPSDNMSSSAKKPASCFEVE
T2 sequence (P35351 whole entry): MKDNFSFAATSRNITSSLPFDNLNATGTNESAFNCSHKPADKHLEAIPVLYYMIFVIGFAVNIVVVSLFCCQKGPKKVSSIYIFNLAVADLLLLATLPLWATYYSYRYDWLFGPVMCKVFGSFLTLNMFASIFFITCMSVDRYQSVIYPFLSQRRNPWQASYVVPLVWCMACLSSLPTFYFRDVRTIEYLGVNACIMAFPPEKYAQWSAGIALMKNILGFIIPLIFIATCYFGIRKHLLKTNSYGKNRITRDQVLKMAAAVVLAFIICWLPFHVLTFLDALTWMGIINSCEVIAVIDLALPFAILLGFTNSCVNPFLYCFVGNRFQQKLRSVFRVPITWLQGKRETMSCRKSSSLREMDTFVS

[4] = biological target: T1, Type-1 angiotensin II receptor; test: Binding affinity expressed as inhibitory concentration towards bovine adrenal cortex angiotensin II receptor was measured; assay type: tissue-based
[5] = biological target: T2, Angiotensin II receptor; test: Binding affinity expressed as inhibitory concentration against angiotensin II receptor of rat adrenal cortex; assay type: tissue-based
[6] = test system: Rattus norvegicus; test: Percent Inhibition of AII vasopressor response in SHR at 1 mg/kg oral dose in hypertensive rats after 5 h; assay type: functional
[7] = test system: Rattus norvegicus; test: Tested for […] in the […] rat at 3 mg/kg of oral dose; […]; assay type: functional, organism-based; design: dose 3 mg/kg
[8] = test system: Rattus norvegicus; test: Decrease in mean arterial blood pressure in aorta coated rats 3 mg/kg of oral dose after 4 hr; assay type: functional

| Compound | IC50 [1] [µM] | Change in BP ([2]; 1 mg/kg) [mmHg] | IC50 [4] [µM] | IC50 [5] [µM] | inhibition in vivo at 1 mg/kg [6] [%] | also measured |
| --- | --- | --- | --- | --- | --- | --- |
| CCc1nc2c(C)cc(C)nc2n1Cc1ccc(-c2ccccc2-c2nnn[nH]2)cc1 [L-158809] | 0.027 |  |  |  |  |  |
| CCCCc1nc2ccc([C@]3(C)C[C@H]4CCCN4O3)cc2c(=O)n1Cc1ccc(-c2ccccc2-c2nn[n-]n2)cc1.[Na+] (stereo in doubt; 1a) |  | 0 | 0.026 |  |  | IC50 [3]: 0.017 µM |
| CCCCc1nc2ccc([C@]3(C)C[C@H]4CCCN4O3)cc2c(=O)n1Cc1ccc(-c2ccccc2-c2nn[n-]n2)cc1.[Na+] (stereo in doubt; 14) |  | -4 | 0.038 | 0.017 | 40 |  |
| CCCCc1nc2ccc(C(C)(O)C[C@H]3CCCN3)cc2c(=O)n1Cc1ccc(-c2ccccc2-c2nn[nH]n2)cc1 (stereo not given in full) |  |  |  |  |  | Activity [7]: Weak activity; Change in BP [8]: 32 mmHg |
| CCCCc1nc2ccc(C(C)(O)C[C@H]3CCCN3)cc2c(=O)n1Cc1ccc(-c2ccccc2-c2nnn[nH]2)cc1 (stereo not given in full) | 0.0035 |  |  |  |  |  |
| CCCCc1nc2ccc([C@@]3(C)C[C@@H]4CCCN4O3)cc2c(=O)n1Cc1ccc(-c2ccccc2-c2nnn[n-]2)cc1.[Na+] |  |  | 0.077 | 0.026 | -10 | Change in BP [2]: -3 mmHg |
